Laboratory results reported in patent US9957278B2, “Furopyridine compounds for the treatment of hepatitis C” (BRISTOL-MYERS SQUIBB COMPANY, priority 2014, dated 2018).
Like-named read-outs stand apart in the source and are kept apart here.

System: genotype 1b (Con-1) HCV replicon
Experiment: HCV Replicon Luciferase Assay (genotype 1b)
Assay type: cell-based
Details: Hepatitis C virus, 72 h, genotype 1b replicon in Huh-7 cells, Renilla luciferase, 3 days incubation
Protocol: The cell lines used to evaluate compounds consist of a human hepatocyte derived cell line (Huh-7) that constitutively expresses a genotype 1b (Con-1) HCV replicon or a genotype 1b (Con-1) HCV replicon with an asparagine replacing the cysteine at amino acid 316, or a genotype 2a (JFH-1) replicon, containing a Renilla luciferase reporter gene. These cells were maintained in Dulbecco's modified Eagle medium (DMEM) containing 10% FBS, 100 U/mL penicillin/streptomycin and 1.0 mg/mL G418.
To evaluate compound efficacy, titrated compounds were transferred to sterile 384-well tissue culture treated plates, and the plates were seeded with HCV replicon cells (50 μL at a density of 2.4×10^3 cells/well) in DMEM containing 4% FBS (final DMSO concentration at 0.5%). After 3 days incubation at 37° C., cells were analyzed for Renilla Luciferase activity using the EnduRen substrate (Promega cat #E6485) according to the manufacturer's directions. Briefly, the EnduRen substrate was diluted in DMEM and then added to the plates to a final concentration of 7.5 μM. The plates were incubated for at least 1 h at 37° C. then read on a Viewlux Imager (PerkinElmer) using a luminescence program. The 50% effective concentration (EC50) was calculated using the four-parameter logistic formula noted above.
Compound EC50 data is expressed as A: <100 nM; B=100-1000 nM; C>1000 nM).

Compound	EC50 (read-out: EC50 1b (class)) [µM]	EC50 (read-out: EC50 (uM) 1b) [µM]
CNC(=O)c1c(-c2ccc(F)cc2)oc2nc(CCC(F)(F)F)c(-c3cccc(C(=O)NCC(C)(C)CO)c3)cc12 [Compound 20026]	< 0.1	0.0043
CNC(=O)c1c(-c2ccc(F)cc2)oc2nc(NCC(F)(F)F)c(-c3cccc(C(=O)NCC(C)(C)C)c3)cc12 [Compound 30011]	< 0.1	
CNC(=O)c1c(-c2ccc(F)cc2)oc2nc(CCC(F)(F)F)c(-c3cccc(C(=O)NCC(C)(C)COC)c3)cc12 [Compound 20033]	< 0.1	
CNC(=O)c1c(-c2ccc(F)cc2)oc2nc(NCC(F)(F)F)c(-c3cccc(C(=O)NC(C)(C)C(=O)NC)c3)cc12 [Compound 30013]	< 0.1	
CNC(=O)c1c(-c2ccc(F)cc2)oc2nc(NCC(F)(F)F)c(-c3cccc(C(=O)NC(C)(C)C(=O)OC)c3)cc12 [Compound 30009]	< 0.1	
CNC(=O)c1c(-c2ccc(F)cc2)oc2nc(NCC(F)(F)C(F)(F)F)c(-c3cccc(C(=O)NC(CF)(CF)CF)c3)cc12 [Compound 40004]	< 0.1	
CNC(=O)c1c(-c2ccc(F)cc2)oc2nc(CCC(F)(F)F)c(-c3cccc(C(=O)N[C@@H](COC)C4CC4)c3)cc12 [Compound 20014]	< 0.1	
CNC(=O)c1c(-c2ccc(F)cc2)oc2nc(CCC(F)(F)F)c(-c3cccc(C(=O)NCC(F)F)c3)cc12 [Compound 20021]	< 0.1	
[2H]C([2H])([2H])C(NC(=O)c1cccc(-c2cc3c(C(=O)NC)c(-c4ccc(F)cc4)oc3nc2NCC(F)(F)C(F)(F)F)c1)(C([2H])([2H])[2H])C([2H])([2H])[2H] [Compound 40003]	0.1 to 1	
CNC(=O)c1c(-c2ccc(F)cc2)oc2nc(CCC(F)(F)F)c(-c3cccc(C(=O)NC(C)(C)C(F)(F)F)c3)cc12 [Compound 20001]	< 0.1	0.0063
CCC(NC(=O)c1cccc(-c2cc3c(C(=O)NC)c(-c4ccc(F)cc4)oc3nc2CCC(F)(F)F)c1)C(F)(F)F (centres unmarked) [Compound 20005]	< 0.1	
CNC(=O)c1c(-c2ccc(F)cc2)oc2nc(Cl)c(-c3ccc(OC)c(C(=O)NC(CF)(CF)CF)c3)cc12 [Compound 10003]	0.1 to 1	
CNC(=O)c1c(-c2ccc(F)cc2)oc2nc(CCC(F)(F)F)c(-c3cccc(C(=O)NCC(F)(F)F)c3)cc12 [Compound 20019]	< 0.1	
CNC(=O)c1c(-c2ccc(F)cc2)oc2nc(NCC(F)(F)F)c(-c3cccc(C(=O)NCC(C)(C)CO)c3)cc12 [Compound 30014]	< 0.1	
CNC(=O)c1c(-c2ccc(F)cc2)oc2nc(CCC(F)(F)F)c(-c3cccc(C(=O)NC(c4ccccc4)C4CC4)c3)cc12 (centres unmarked) [Compound 20017]	< 0.1	
CNC(=O)c1c(-c2ccc(F)cc2)oc2nc(CCC(F)(F)F)c(-c3cccc(C(=O)N[C@H](COC)C4CC4)c3)cc12 [Compound 20015]	< 0.1	0.0056
CNC(=O)c1c(-c2ccc(F)cc2)oc2nc(Cl)c(-c3cccc(C(=O)NC(CF)(CF)CF)c3)cc12 [Compound 11001]	0.1 to 1	
CNC(=O)c1c(-c2ccc(F)cc2)oc2nc(CCC(F)(F)F)c(-c3cccc(C(=O)NC(C)C4CC4)c3)cc12 (centres unmarked) [Compound 20013]	< 0.1	
[2H]C([2H])([2H])C(NC(=O)c1cc(-c2cc3c(C(=O)NC)c(-c4ccc(F)cc4)oc3nc2NCC(F)(F)C(F)(F)F)ccc1OC)(C([2H])([2H])[2H])C([2H])([2H])[2H] [Compound 41005]	< 0.1	
CNC(=O)c1c(-c2ccc(F)cc2)oc2nc(CCC(F)(F)F)c(-c3ccc(OC)c(C(=O)NCC(F)(F)C(F)(F)C(F)(F)F)c3)cc12 [Compound 21002]	< 0.1	
CNC(=O)c1c(-c2ccc(F)cc2)oc2nc(CCC(F)(F)F)c(-c3cccc(C(=O)NCC(C)(F)F)c3)cc12 [Compound 20035]	< 0.1	
CNC(=O)c1c(-c2ccc(F)cc2)oc2nc(CCC(F)(F)F)c(-c3cccc(C(=O)NC(C)(C)CCO)c3)cc12 [Compound 20036]	< 0.1	
CNC(=O)c1c(-c2ccc(F)cc2)oc2nc(CCC(F)(F)F)c(-c3ccc(F)c(C(=O)NC(C)(C)C(F)(F)F)c3)cc12 [Compound 22003]	< 0.1	
CNC(=O)c1c(-c2ccc(F)cc2)oc2nc(CCC(F)(F)F)c(-c3cccc(C(=O)NC(CF)(CF)CF)c3)cc12 [Compound 20002]	< 0.1	

Compound	EC50 (read-out: EC50 1b (class)) [µM]	EC50 (read-out: EC50 (uM) 1b) [µM]
CNC(=O)c1c(-c2ccc(F)cc2)oc2nc(NCC(F)(F)F)c(-c3cccc(C(=O)NC(C)(C)CO)c3)cc12 [Compound 30010]	< 0.1	
CNC(=O)c1c(-c2ccc(F)cc2)oc2nc(NCC(F)(F)C(F)(F)F)c(-c3cccc(C(=O)NC(C)(C)C)c3)cc12 [Compound 40002]	< 0.1	
CNC(=O)c1c(-c2ccc(F)cc2)oc2nc(CCC(F)(F)F)c(-c3cccc(C(=O)N[C@@H](CO)C4CC4)c3)cc12 [Compound 20006]	< 0.1	
CNC(=O)c1c(-c2ccc(F)cc2)oc2nc(CCC(F)(F)F)c(-c3cccc(C(=O)NC(C)(CO)CO)c3)cc12 [Compound 20027]	< 0.1	
CNC(=O)c1c(-c2ccc(F)cc2)oc2nc(CCC(F)(F)F)c(-c3cccc(C(=O)NCC(F)(F)C(F)(F)C(F)(F)F)c3)cc12 [Compound 20037]	< 0.1	0.0106
C#CC(C)(C)NC(=O)c1cccc(-c2cc3c(C(=O)NC)c(-c4ccc(F)cc4)oc3nc2NCC(F)(F)C(F)(F)F)c1 [Compound 40005]	0.1 to 1	
CNC(=O)c1c(-c2ccc(F)cc2)oc2nc(NCC(F)(F)F)c(-c3cccc(C(=O)NC(C)C(F)(F)F)c3)cc12 (centres unmarked) [Compound 30004]	< 0.1	
CNC(=O)c1c(-c2ccc(F)cc2)oc2nc(CCC(F)(F)F)c(-c3cccc(C(=O)N[C@@H](C)C4CC4)c3)cc12 [Compound 20011]	< 0.1	
CNC(=O)c1c(-c2ccc(F)cc2)oc2nc(NCCO)c(-c3cccc(C(=O)NC(CF)(CF)CF)c3)cc12 [Compound 42002]	< 0.1	
CNC(=O)c1c(-c2ccc(F)cc2)oc2nc(NCC(F)(F)F)c(-c3cccc(C(=O)NC(C4CC4)C(F)(F)F)c3)cc12 (centres unmarked) [Compound 30007]	< 0.1	
CNC(=O)c1c(-c2ccc(F)cc2)oc2nc(CCC(F)(F)F)c(-c3cccc(C(=O)NC4CCOCC4)c3)cc12 [Compound 20031]	< 0.1	0.0136
C#CC(C)(C)NC(=O)c1cc(-c2cc3c(C(=O)NC)c(-c4ccc(F)cc4)oc3nc2CCC(F)(F)F)ccc1OC [Compound 21001]	< 0.1	
CC[C@@H](NC(=O)c1cccc(-c2cc3c(C(=O)NC)c(-c4ccc(F)cc4)oc3nc2CCC(F)(F)F)c1)C1CC1 [Compound 20009]	< 0.1	0.01
CNC(=O)c1c(-c2ccc(F)cc2)oc2nc(NCC(F)(F)C(F)(F)F)c(-c3cccc(C(=O)NCC(C)(C)C)c3)cc12 [Compound 40001]	< 0.1	0.0982
CNC(=O)c1c(-c2ccc(F)cc2)oc2nc(NCC(F)(F)F)c(-c3ccc(OC)c(C(=O)NCC(F)(F)C(F)(F)C(F)(F)F)c3)cc12 [Compound 31001]	< 0.1	0.014
CNC(=O)c1c(-c2ccc(F)cc2)oc2nc(CCC(F)(F)F)c(-c3cccc(C(=O)NC(COC)C4CC4)c3)cc12 (centres unmarked) [Compound 20016]	< 0.1	0.0217
CNC(=O)c1c(-c2ccc(F)cc2)oc2nc(NCC(F)(F)C(F)(F)F)c(-c3ccc(OC)c(C(=O)NC(C)(C)C)c3)cc12 [Compound 41001]	< 0.1	
C#CC(C)(C)NC(=O)c1cc(-c2cc3c(C(=O)NC)c(-c4ccc(F)cc4)oc3nc2Cl)ccc1OC [Compound 10002]	< 0.1	0.0362
CNC(=O)c1c(-c2ccc(F)cc2)oc2nc(NCC(F)(F)F)c(-c3cccc(C(=O)N[C@H](CO)c4ccccc4)c3)cc12 [Compound 30016]	< 0.1	
CNC(=O)c1c(-c2ccc(F)cc2)oc2nc(NCC(F)(F)F)c(-c3cccc(C(=O)N[C@@H](CO)c4ccccc4)c3)cc12 [Compound 30012]	< 0.1	0.0239
CCC(NC(=O)c1cccc(-c2cc3c(C(=O)NC)c(-c4ccc(F)cc4)oc3nc2NCC(F)(F)F)c1)C(F)(F)F (centres unmarked) [Compound 30005]	< 0.1	
CNC(=O)c1c(-c2ccc(F)cc2)oc2nc(NCC(F)(F)F)c(-c3cccc(C(=O)NC(C)(C)C(F)(F)F)c3)cc12 [Compound 30006]	< 0.1	0.0053
CCOC(=O)C(C)(C)NC(=O)c1cccc(-c2cc3c(C(=O)NC)c(-c4ccc(F)cc4)oc3nc2CCC(F)(F)F)c1 [Compound 20029]	< 0.1	
